Assay results: patent publication US11952363B2, “Piperazine compounds for the treatment of autoimmune disease” (Hoffmann-La Roche Inc., priority 2018, dated 2024)

How the values were obtained:
human TLR8 = target: T1, human TLR8 (Homo sapiens, UniProt Q9NR97); assay: HEK293-Blue-hTLR-8 cells assay (SEAP reporter, R848 stimulation); assay type: cell-based; conditions: HEK293-Blue-hTLR8 cells, R848 ligand, 20 hrs incubation; read-out: HEK/hTLR8 IC50
T1 sequence (Q9NR97 27-1041): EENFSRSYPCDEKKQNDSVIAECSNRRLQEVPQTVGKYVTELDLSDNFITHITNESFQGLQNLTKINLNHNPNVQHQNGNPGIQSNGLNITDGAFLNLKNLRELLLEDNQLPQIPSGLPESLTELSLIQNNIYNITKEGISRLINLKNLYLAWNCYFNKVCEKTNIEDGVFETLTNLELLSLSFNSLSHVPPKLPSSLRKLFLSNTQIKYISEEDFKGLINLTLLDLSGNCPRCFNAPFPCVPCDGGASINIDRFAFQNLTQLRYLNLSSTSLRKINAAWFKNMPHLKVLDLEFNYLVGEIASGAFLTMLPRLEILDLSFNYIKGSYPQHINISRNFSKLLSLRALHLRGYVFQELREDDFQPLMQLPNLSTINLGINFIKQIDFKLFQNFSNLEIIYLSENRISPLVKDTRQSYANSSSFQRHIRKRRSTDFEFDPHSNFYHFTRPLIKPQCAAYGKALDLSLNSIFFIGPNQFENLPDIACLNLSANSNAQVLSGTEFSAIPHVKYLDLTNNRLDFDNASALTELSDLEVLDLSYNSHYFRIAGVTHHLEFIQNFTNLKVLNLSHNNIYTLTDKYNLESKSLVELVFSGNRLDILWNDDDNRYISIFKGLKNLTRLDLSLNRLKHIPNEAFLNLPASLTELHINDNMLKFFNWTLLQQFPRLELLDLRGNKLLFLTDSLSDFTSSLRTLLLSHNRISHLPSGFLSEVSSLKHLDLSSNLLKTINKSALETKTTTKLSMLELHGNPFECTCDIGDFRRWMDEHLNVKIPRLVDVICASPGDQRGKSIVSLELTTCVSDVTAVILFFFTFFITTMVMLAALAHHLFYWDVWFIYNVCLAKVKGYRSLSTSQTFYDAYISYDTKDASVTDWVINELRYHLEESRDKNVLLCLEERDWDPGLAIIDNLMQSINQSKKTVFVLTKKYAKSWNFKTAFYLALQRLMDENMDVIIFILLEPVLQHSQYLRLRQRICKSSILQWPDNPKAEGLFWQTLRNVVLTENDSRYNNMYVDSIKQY
Procedure: The following tests were carried out in order to determine the activity of the compounds of formula (I) in HEK293-Blue-hTLR-7/8/9 cells assay.
A stable HEK293-Blue-hTLR-8 cell line was purchased from InvivoGen (Cat.#: hkb-htlr8, San Diego, California, USA). These cells were originally designed for studying the stimulation of human TLR8 by monitoring the activation of NF-κB. A SEAP (secreted embryonic alkaline phosphatase) reporter gene was placed under the control of the IFN-β minimal promoter fused to five NF-κB and AP-1-binding sites. The SEAP was induced by activating NF-κB and. AP-1 via stimulating HEK-Blue hTLR8 cells with TLR8 ligands. Therefore the reporter expression was declined by TLR8 antagonist under the stimulation of a ligand, such as R848, for incubation of 20 hrs. The cell culture supernatant SEAP reporter activity was determined using QUANTI-Blue™ kit (Cat.#: rep-qb1, Invivogen, San Diego, Ca, USA) at a wavelength of 640 nm, a detection medium that tunas purple or blue in the presence of alkaline phosphatase.
HEK293-Blue-hTLR8 cells were incubated at a density of 250,000˜450,000 cells/mL in a volume of 170 μL in a 96-well plate in Dulbecco's Modified Eagle's medium (DMEM) containing 4.5 g/L glucose, 50 U/mL penicillin, […], […], 2 mM L-glutamine, 10% (v/v) heat-inactivated fetal bovine serum with addition of 20 μL test compound in a serial dilution in the presence of final DMSO at 1% and 10 μL of 60 uM R848 in above DMEM, perform incubation under 37° C. in a CO2 incubator for 20 hrs. Then 20 μL of the supernatant from each well was incubated with […] Quanti-blue substrate solution at 37° C. for 2 hrs and the absorbance was read at 620-655 nm using a spectrophotometer. The signalling pathway that TLR8 activation leads to downstream NF-κB activation has been widely accepted, and therefore similar reporter assay was modified for evaluating TLR8 antagonist.

CYP2D6 = target: T2, CYP2D6 (Homo sapiens, UniProt P10635); assay: CYP inhibition assay in human liver microsome; assay type: in vitro ADME; conditions: liver microsomes, probe dextromethorphan, 10 μM compound, dextromethorphan substrate, percentage inhibition < 0: not or weak inhibitor, read-out: CYP 2D6 inhibition % @10 μM
T2 construct: tissue BD-Gentest 452117; host or cells: human liver microsomes
T2 sequence (P10635 whole entry): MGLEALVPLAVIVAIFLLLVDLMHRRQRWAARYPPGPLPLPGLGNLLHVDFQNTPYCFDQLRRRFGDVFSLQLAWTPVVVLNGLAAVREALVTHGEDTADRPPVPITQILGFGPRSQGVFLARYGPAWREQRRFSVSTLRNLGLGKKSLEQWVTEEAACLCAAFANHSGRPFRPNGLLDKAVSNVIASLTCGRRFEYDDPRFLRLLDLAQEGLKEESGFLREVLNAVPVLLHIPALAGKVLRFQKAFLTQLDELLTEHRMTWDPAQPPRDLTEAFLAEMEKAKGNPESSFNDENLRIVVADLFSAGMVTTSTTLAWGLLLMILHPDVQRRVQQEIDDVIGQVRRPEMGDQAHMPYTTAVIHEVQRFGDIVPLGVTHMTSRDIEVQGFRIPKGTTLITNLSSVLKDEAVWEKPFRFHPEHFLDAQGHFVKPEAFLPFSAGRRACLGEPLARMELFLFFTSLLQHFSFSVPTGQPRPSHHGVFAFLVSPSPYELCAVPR
Procedure: This is a high throughput screening assay used for assessment of reversible inhibition of CYP2D6 activity of test compounds in human liver microsome (HLM) in early discovery stage.
10 mM DMSO stock solutions of test compounds were diluted in DMSO to generate 2 mM intermediate stock solution. 250 nL of intermediate stock solution were transferred in duplicate into 3 separate 384 well microtitre plates (assay-ready plates). A mixture of HLM and each substrate was made up. 45 μL of HLM substrate mix was then transferred to each well of an assay ready plate and mixed. The negative (solvent) and positive control (standard inhibitor for CYP 2D6) were included in each assay ready plate. The assay ready plate was warmed to 37° C. in an incubator over 10 minutes. 5μL pre-warmed NADPH regenerating system was added to each incubation well to start the reaction. Final incubation volume was 50 μL. The assay plate then was placed back in the 37° C. incubator. After 10 minutes incubation, incubates were quenched by addition of 50 μL 100% acetonitrile containing internal standards (20 ng/mL D3-Dextrorphan). The supernatants were collected for RapidFire/MS/MS analysis.
RapidFire online solid phase extraction/sample injection system (Agilent) coupled with API4000 triple quadrupole mass spectrometer (AB Sciex) were used for sample analysis. The mobile phase composed of acetonitrile and water supplemented with 0.1% formic acid. A C4 solid phase extraction cartridge is used for sample separation. MS detection is achieved in positive ion MRM mode.
Peak areas for substrate, metabolite and internal standard are determined using the RapidFire integrator software (version 3.6.12009.12296). Peak area ratios (PAR) of metabolite and internal standard (stable-labelled metabolite) are then calculated. The measurement window for each experiment is then defined:
PAR (0% activity)=average PAR for all incubations containing concentrated inhibitor;
Par (100% activity)=average PAR for all incubations containing no inhibitor (DMSO controls);
% Activity (test inhibitor)
=[PAR(test inhibitor)-PAR(0% activity)]/[PAR(100% activity)-PAR(0% activity)];
% Inhibition (test inhibitor)=100-% Activity (test inhibitor).

Row | SMILES | IC50 (human TLR8) | inhibition at 10 min, 10 µM (CYP2D6)
1 | C[C@@H]1CN(c2ccc(C#N)c3ncccc23)C[C@H](C)N1Cc1ccc(N2CCNCC2)cc1 [Example 1, 5-[(3R,5S)-3,5-Dimethyl-4-[(4-piperazin-1-ylphenyl)methyl]piperazin-1-yl]quinoline-8-carbonitrile] | 16 nM | 17%
2 | C[C@@H]1CN(c2ccc(C#N)c3ncccc23)C[C@@H](C)N1Cc1ccc(N2CCNCC2)cc1 [Example 2] | 32 nM | –
3 | C[C@@H]1CN(c2ccc(C#N)c3ncccc23)C[C@H](C)N1Cc1ccc(N2CCNCC2)nc1 [Example 3, 5-[(3R,5S)-3,5-Dimethyl-4-[(6-piperazin-1-yl-3-pyridyl)methyl]piperazin-1-yl]quinoline-8-carbonitrile] | 31 nM | -2.5%
4 | C[C@@H]1CN(c2ccc(C#N)c3ncccc23)C[C@H](C)N1Cc1ncc(N2CCNCC2)cn1 [Example 4, 5-[(3S,5R)-3,5-Dimethyl-4-[(5-piperazin-1-ylpyrimidin-2-yl)methyl]piperazin-1-yl]quinoline-8-carbonitrile] | 19 nM | –
5 | C[C@@H]1CN(c2ccc(C#N)c3ncccc23)C[C@H](C)N1Cc1ccc(N2CCNCC2)cn1 [Example 5, 5-[(3S,5R)-3,5-Dimethyl-4-[(5-piperazin-1-yl-2-pyridyl)methyl]piperazin-1-yl]quinoline-8-carbonitrile] | 15 nM | 5.5%
6 | C[C@@H]1CN(c2ccc(C#N)c3ncccc23)C[C@H](C)N1Cc1ncc(N2CCN(C(=O)CN(C)C)CC2)cn1 [Example 6, 5-[(3S,5R)-4-[[5-[4-[2-(Dimethylamino)acetyl]piperazin-1-yl]pyrimidin-2-yl]methyl]-3,5-dimethyl-piperazin-1-yl]quinoline-8-carbonitrile] | 53 nM | 5%
7 | C[C@@H]1CN(c2ccc(C#N)c3ncccc23)C[C@H](C)N1Cc1ccc(N2CCN(C)CC2)cn1 [Example 7, 5-[(3S,5R)-3,5-dimethyl-4-[[5-(4-methylpiperazin-1-yl)-2-pyridyl]methyl]piperazin-1-yl]quinoline-8-carbonitrile] | 19 nM | –
8 | C[C@@H]1CN(c2ccc(C#N)c3ncccc23)C[C@H](C)N1Cc1ccc(N2CC3CNCC(C2)O3)cn1 [Example 8, 5-[(3S,5R)-3,5-Dimethyl-4-[[5-(9-oxa-3,7-diazabicyclo[3.3.1]nonan-3-yl)-2-pyridyl]methyl]piperazin-1-yl]quinoline-8-carbonitrile] | 36 nM | 12.5%
9 | C[C@@H]1CN(c2ccc(C#N)c3ncccc23)C[C@H](C)N1Cc1ccc(N[C@@H]2CNC[C@@H]2F)cn1 [Example 9, 5-[(3R,5S)-3,5-Dimethyl-4-[[5-[[(3R,4S)-4-fluoropyrrolidin-3-yl]amino]-2-pyridyl]methyl]piperazin-1-yl]quinoline-8-carbonitrile] | 22 nM | -6.5%
10 | C[C@@H]1CN(c2ccc(C#N)c3ncccc23)C[C@H](C)N1Cc1ccc(N2CCN(C(=O)C3CCCN3)CC2)cn1 (stereo partly drawn) [Example 10, 5-[(3R,5S)-3,5-Dimethyl-4-[[5-[4-(pyrrolidine-2-carbonyl)piperazin-1-yl]-2-pyridyl]methyl]piperazin-1-yl]quinoline-8-carbonitrile] | 52 nM | 4.5%
11 | C[C@@H]1CN(c2ccc(C#N)c3ncccc23)C[C@H](C)N1Cc1ccc(N2CCN(C(=O)CN(C)C)CC2)cn1 [Example 11, 5-[(3S,5R)-4-[[5-[4-[2-(Dimethylamino)acetyl]piperazin-1-yl]-2-pyridyl]methyl]-3,5-dimethyl-piperazin-1-yl]quinoline-8-carbonitrile] | 35 nM | 23%
12 | C[C@@H]1CN(c2ccc(C#N)c3ncccc23)C[C@H](C)N1Cc1ccc(N2CCNCC2CO)cc1 (stereo partly drawn) [Example 12, 5-[(3R,5S)-4-[[4-[2-(Hydroxymethyl)piperazin-1-yl]phenyl]methyl]-3,5-dimethyl-piperazin-1-yl]quinoline-8-carbonitrile] | 33 nM | –
13 | C[C@@H]1CN(c2ccc(C#N)c3ncccc23)C[C@H](C)N1CC(=O)N1CCc2nc(N3CCNCC3)ccc2C1 [Example 13, 5-[(3R,5S)-3,5-Dimethyl-4-[2-oxo-2-(2-piperazin-1-yl-7,8-dihydro-5H-1,6-naphthyridin-6-yl)ethyl]piperazin-1-yl]quinoline-8-carbonitrile] | 21 nM | –
14 | C[C@@H]1CN(c2ccc(C#N)c3ncccc23)C[C@H](C)N1CC(=O)N1CCc2cc(N3CCNCC3)ccc2C1 [Example 14, 5-[(3R,5S)-3,5-Dimethyl-4-[2-oxo-2-(6-piperazin-1-yl-3,4-dihyrdo-1H-isoquinolin-2-yl)ethyl]piperazin-1-yl]quinoline-8-carbonitrile] | 20 nM | –
15 | C[C@@H]1CN(c2ccc(C#N)c3ncccc23)C[C@H](C)N1CC(=O)N1CCc2ccc(N3CCNCC3)cc2C1 [Example 15, 5-[(3R,5S)-3,5-dimethyl-4-[2-pxp-2-(7-piperazin-1-yl-3,4-dihydro-1H-isoquinolin-2-yl)ethyl]piperazin-1-yl]quinoline-8-carbonitrile] | 46 nM | 19%
16 | C[C@@H]1CN(c2ccc(C#N)c3ncccc23)C[C@H](C)N1CC(=O)N1Cc2ccc(N3CCNCC3)cc2C1 [Example 16, 5-[(3R,5S)-3,5-Dimethyl-4-[2-oxo-2-(5-piperazin-1-ylisoindolin-2-yl)ethyl]piperazin-1-yl]quinoline-8-carbonitrile] | 55 nM | 2%
17 | CC1CN(c2ccc(C#N)c3ncccc23)CCN1CC(=O)Nc1ccc(N2CCNCC2)cc1 (stereo not shown) [Example 17, 2-[4-(8-Cyano-5-quinolyl)-2-methyl-piperazin-1-yl]-N-(4-piperazin-1-ylpheny)acetamide] | 58 nM | 7%
